Measured values from US20220079953A1, “METHODS FOR MANAGEMENT OF WEIGHT” (The University of Sydney, priority 2018, published 2022).

Key:
[1] = Progressive ratio consumption of a high-sugar high-fat food (M&Ms) by non-human primates; type: in vivo, rhesus monkeys; details: for trend of breakpoint with increasing doses: 0, 1, 2, 3 mg/kg IM
Source text: Individuals who are overweight or obese frequently report intense cravings for, and motivation to, consume food. Here we model the motivational aspects that can drive excessive food-seeking and consumption, which can lead to overweight and obesity by studying rhesus monkeys who must respond under a progressive ratio to receive M&Ms (which are high in both fat and sugar). A progressive ratio requires subjects to work increasingly harder to obtain reinforcement, modelling the intense motivation and craving characteristic of excessive food-seeking and consumption in individuals who are obese, overweight or at risk of being overweight.
Five female rhesus monkeys were trained to press a lever to self-administer M&Ms. Under a progressive ratio, subjects responded for a reinforcer of either 1 or 5 M&Ms. The ratio began at either 25 (two subjects) or 50 (three subjects) responses per reinforcement and increased by 40% after each reinforcer delivery. SOC-1 was administered IM using a within-subjects design whereby all monkeys received doses of 0, 1, 2 and 3 mg/kg SOC-1. One dose per subject was administered prior to each progressive ratio test session. Breakpoint refers to the number of times the monkeys would press the lever to receive a single reinforcer before giving up.

[2] = Sucrose self-administration under FR5 schedule; type: in vivo, Sprague Dawley rats; details: 10% sucrose; for active lever presses / number of sucrose rewards received: 15 min before session, p<0.001
Source text: This model induces high levels of sucrose consumption and sucrose seeking in rats, akin to the unhealthy high sugar diets that are a major determinant of obesity. Excessive consumption of sugar-sweetened beverages are especially associated with increased risk of obesity and type 2 diabetes. Thus, the model chosen here is particularly well suited as it involves escalating voluntary consumption of high-sucrose solution by rats, providing both face and construct validity.
Male Sprague Dawley rats were water deprived for 19.5 hours before the start of sucrose self-administration. Water deprivation continued for the first five days of self-administration. Initially, rats were trained during daily 30 minute FR-1 scheduled sessions to lever press for sucrose (10%). Stable responding under the FR-1 schedule was achieved within 10 days. Rats were then transferred to an FR2 and FR3 schedule for a minimum of three days, and then an FR5 schedule until lever pressing stabilised. Subsequently SOC-1 testing began. Each test day was separated by 2-3 FR-5 scheduled sessions. Rats received SOC-1 in an ascending dose sequence (0, 5, and 10 mg/kg, ip), which was administered 15 minutes prior to the test session. On the final test session, rats received a vehicle injection to ensure rats continued to self-administer sucrose at high levels when not receiving treatment with SOC-1.

[3] = Reinstatement of sucrose-seeking; type: in vivo, Sprague Dawley rats; details: for reinstatement of sucrose seeking: 15 min before session, p<0.001 vs 0 mg/kg reinstatement
Source text: Sugar is a highly palatable food component. This contributes greatly to the maintenance of the high sugar diets that can lead to obesity. Once a healthier diet has been established, including cessation of consumption of high sugar foods, it can be difficult for individuals to maintain that healthier diet. Specifically, after a period of not consuming the high sugar foods individuals can again start seeking out and consuming those foods. Here we model this resumption of high-sugar diet consumption using a rat model of reinstatement of sucrose self-administration to assess whether SOC-1 might reduce motivation to resume consumption of high-sugar foods.
Male Sprague Dawley rats were water deprived for 19.5 hours before the start of sucrose self-administration. Water deprivation continued for the first five days of self-administration. Rats were allowed to acquire self-administration of sucrose (10%) during 30-minute FR-1 scheduled sessions for 20 days. Following this, rats were exposed to daily 30-minute extinction sessions. Rats met the extinction criteria (minimum of 10 days and less than 15 active lever presses per session for 2 consecutive days) after 10 sessions. Once the extinction criteria were met, rats underwent reinstatement testing. Each reinstatement test session was separated by two extinction days. Prior to each reinstatement session, rats received an injection of vehicle or SOC-1. Fifteen minutes later, they were placed in the testing chamber, where they had access to 0.3 ml sucrose, which they could lever press for. Rats received SOC-1 in an ascending dose sequence (0, 5, 10 mg/kg, ip). On the reinstatement session subsequent to SOC-1 dose testing, an additional vehicle session was conducted to ensure that rats continued to reinstate to sucrose-seeking behaviour when no treatment was given.

[4] = Extinction of food reward-associated lever pressing in food restricted rats; type: in vivo, Long-Evans rats; details: all doses tested (5, 10, 20 mg/kg p.o.), 30 min before session
Description: Adult male Long-Evans rats were allowed to feed freely until they reached a target weight of 320-340 g. Rats were then maintained at this weight by restricting feeding. Once target weight had been reached, each rat was placed in an operant test chamber and was trained to press the right lever to receive a 45 mg food pellet under an FR1 schedule of reinforcement during daily 15 min sessions.
Once stable responding (right-side lever pressing+/−10% of the mean of the previous three sessions) had been established, drug testing commenced. Rats were pre-treated with SOC-1 (0, 5, 10, 20 mg/kg) administered by oral gavage (p.o.) 30 min prior to the start of the session.

[5] = Inhibition of weight gain in rats; type: in vivo, Sprague Dawley rats; details: 30 mg/kg oral gavage once daily for 10 days; ad libitum standard chow
Description: 20 adult male Sprague Dawley rats were given ad libitum access to standard rat chow in their home cage over the course of the experiment. Rats were divided into four equally sized groups and were treated once daily with either 0, 5, 10 or 30 mg/kg SOC-1 via oral gavage for 10 days. Body weights were recorded daily.

Compound: Cn1ncc2c1Nc1ccccc1NC2 [SOC-1]
- trend of breakpoint with increasing doses ([1]; reinforcement 1 M&M, trend analysis p=0.012): significant linear decrease in breakpoint
- breakpoint (lever presses for a single reinforcer before giving up) ([1]; reinforcement 1 M&M, 2 mg/kg IM, p=0.015 vs 0 mg/kg): significantly reduced the breakpoint
- breakpoint (lever presses for a single reinforcer before giving up) ([1]; reinforcement 1 M&M, 3 mg/kg IM, p=0.014 vs 0 mg/kg): significantly reduced the breakpoint
- trend of breakpoint with increasing doses ([1]; reinforcement 5 M&Ms, trend analysis p=0.025): significant linear decrease in breakpoint
- breakpoint (lever presses for a single reinforcer before giving up) ([1]; reinforcement 5 M&Ms, 3 mg/kg IM, p=0.021 vs 0 mg/kg): significantly reduced the breakpoint
- active lever presses ([2]; 5 mg/kg ip): significantly decreased
- number of sucrose rewards received ([2]; 5 mg/kg ip): significantly decreased
- active lever presses ([2]; 10 mg/kg ip): significantly decreased
- number of sucrose rewards received ([2]; 10 mg/kg ip): significantly decreased
- inactive lever presses ([2]; 5 and 10 mg/kg ip): no significant effect
- reinstatement of sucrose seeking ([3]; 5 mg/kg ip): completely prevented reinstatement
- reinstatement of sucrose seeking ([3]; 10 mg/kg ip): completely prevented reinstatement
- inactive lever presses ([3]; reinstatement sessions, any dose (5, 10 mg/kg ip)): no significant effect
- non-reinforced responding for a food pellet [4]: significantly reduced
- weight gain over the 10 treatment days [5]: significantly inhibited weight gain
